This note sets out measurements from patent US11427553B2, “Dihydrooxadiazinones” (Bayer Aktiengesellschaft, priority 2017, dated 2022).

One assay has as its system H4 cells. The assay can be described thus: Assay 1 cell proliferation measurement, H4. It counts as cell-based. The note with it: Homo sapiens; Astrocytoma; read-out: Anti-proliferation IC50 [nM] H4.
The next assay deals with NCI-H1734 cells. Kind of assay: Assay 1 cell proliferation measurement, NCI-H1734. The class given is cell-based. The note with it: Homo sapiens, Lung, read-out: Anti-proliferation IC50 [nM] NCI-H1734.
The test system of the next assay is C32 cells. The assay can be described thus: Assay 1 cell proliferation measurement, C32. It counts as cell-based. The following applies: Homo sapiens, Melanoma, read-out: Anti-proliferation IC50 [nM] C32.
The test system of another assay is COLO741 cells. The assay can be described thus: Assay 1 cell proliferation measurement, COLO741. It counts as cell-based. The note with it: Homo sapiens, COLO-741; Melanoma; read-out: Anti-proliferation IC50 [nM] COLO741.
The next assay relates to CAL51 cells. The assay can be described thus: Assay 2 cell proliferation measurement, CAL51. The class given is cell-based. The following applies: Homo sapiens, CAL-51, Breast NS, read-out: Anti-proliferation IC50 [nM] CAL51. The protocol: (§1) Cell Proliferation Measurement
(§2) The antiproliferative activity of the compounds of the general formula (I) was examined in vitro in human cancer cells. For this purpose, 500 cells, including HeLa cells, A2058 cells, DU145 cells, HMCB cells, IGR37 cells, NCIH1734 cells, OSRC2 cells, or 750 cells, including CAL51 cells, COL0741 cells, DBTRG05MG cells, DKMG cells, G292CLONEA141B1 cells, GB1 cells, HEL cells, HEL9217 cells, JHUEM1 cells, L3.3 cells, LI7 cells, TE4 cells, or 1000 cells, including 8505C cells, HUT78 cells, NCIH1563 cells, NCIH2122 cells, NCIH2172 cells, RVH421 cells, SKMEL3 cells, or 1500 cells, including C32 cells, HS578T cells, JHOM1 cells, NCIH196 cells, OVKATE cells, were plated in 384-well plates with appropriate growth medium and incubated at 37° C. overnight. […] After 72 h, the cells were treated with 20 μl/well of 50% CTG solution in PBS (Promega Cell Titer Glo (catalogue #G755B and G756B)) and incubated at room temperature for 10 min, and luminescence was measured by means of a VICTOR V (Perkin Elmer), in order to determine cell viability at the end of treatment. The percentage effect on cell growth and the IC50 derived therefrom were determined for each test substance using the values from untreated wells (=percent viability). The IC50 values were calculated using a 4-parameter fit.

Another assay has as its system DU145 cells. The assay can be described thus: Assay 2 cell proliferation measurement, DU145. The class given is cell-based. The note with it: Homo sapiens, DU-145, Prostate NS, read-out: Anti-proliferation IC50 [nM] DU145. Here is the method:
as §1, §2

The test system of assay [1] is HeLa xenograft (Cervical cancer). The assay can be described thus: Assay 3 in vivo xenotransplantation model, HeLa. The note with it: mice, 5 mg/kg 2QD p.o., * P < 0.05 vs control. The text has this: (§3) In Vivo Xenotransplantation Models
(§4) The anti-tumor activities of Compounds of examples 135 and 146 were examined in murine xenotransplantation models of human cancer. For this purpose, mice were implanted subcutaneously with tumor cells. At a mean tumor size of 20-40 mm^2 animals were randomized into treatment and control groups (at least n=10 animals/group) and treatment started with vehicle only or respective Compound (formulation: 90% PEG400/10% Ethanol; application route: per os (“p.o.”), orally). The oral application volume was 10 ml/kg. In the case of twice daily treatments, the time interval between two applications per day was 6-7 h. The tumor size and the body weight were determined at least weekly. The tumor area was detected by means of an electronic caliper [length (mm)×width (mm)]. The experiment was ended when the study reached the pre-determined ethical endpoint based on German and European animal welfare regulations. In vivo anti-tumor efficacy is presented as T/C ratio at study end (Treatment/Control; mean tumor weight of treatment group/mean tumor weight of control group) in Table 8. A compound having a T/C below 0.5 is defined as active (i.e., effective). Statistical analysis was assessed using SigmaStat software. A one-way analysis of variance was performed and differences to the control were compared by a pair-wise comparison procedure (Dunn's method).

A further assay deals with JHOM1 cells. The assay can be described thus: Assay 2 cell proliferation measurement, JHOM1. The class given is cell-based. The following applies: Homo sapiens, Ovary adenocarcinoma, read-out: Anti-proliferation IC50 [nM] JHOM1. Here is the method: as §1, §2
Another assay relates to NCIH2122 cells. The assay can be described thus: Assay 2 cell proliferation measurement, NCIH2122. It counts as cell-based. The note with it: Homo sapiens, NCI-H2122, Lung adenocarcinoma, read-out: Anti-proliferation IC50 [nM] NCIH2122. Here is the method:
as §1, §2

Assay [2] relates to A2058 xenograft (Melanoma). Kind of assay: Assay 3 in vivo xenotransplantation model, A2058. The note with it: mice, 10 mg/kg 2QD p.o., * P < 0.05 vs control.
From the text: as §3, §4

For the molecule `O=C1NN=C(c2ccc(-c3ccc(F)cc3)c(C(F)(F)F)c2)CO1` [Example 3, 5-[4′-Fluoro-2-(trifluoromethyl)biphenyl-4-yl]-3,6-dihydro-2H-1,3,4-oxadiazin-2-one], the IC50 with H4 cells was found to be 25 nM; in the assay with NCI-H1734 cells it was 13 nM.
In the case of `C[C@@H]1OC(=O)NN=C1c1ccc(-c2ccc(F)cc2)c(C(F)(F)F)c1` [Example 135, (6S)-5-[4′-Fluoro-2-(trifluoromethyl)biphenyl-4-yl]-6-methyl-3,6-dihydro-2H-1,3,4-oxadiazin-2-one], the IC50 in the assay on C32 cells turned out to be 15 nM; in the assay on COLO741 cells it was 1 nM.
`O=C1NN=C(c2ccc(-c3cnn(C(F)F)c3)c(C(F)(F)F)c2)CO1` [Example 146, 5-{4-[1-(Difluoromethyl)-1H-pyrazol-4-yl]-3-(trifluoromethyl)phenyl}-3,6-dihydro-2H-1,3,4-oxadiazin-2-one]: the IC50 was 37 nM with CAL51 cells, 14 nM with DU145 cells, 8 nM in the assay on JHOM1 cells and 3 nM with NCIH2122 cells. The “T/C (mean final tumor weight treatment / control)” value in [1] is listed as 0.08*; in [2], 0.23*.
